Among the data in patent publication US20260297085A1, “1 H-PYRROLO[2,3-B]PYRIDIN-4-YL]-2-OXOPYRROLIDINE-3-CARBONITRILE DERIVATIVES AS TYROSINE KINASE 2 (TYK2) INHIBITORS FOR THE TREATMENT OF INFLAMMATORY DISEASES” (BIOGEN MA INC., priority 2023, published 2026) are IC50 values, retold here.

Experiment [1] has as its target T1, human TYK2 kinase domain (JH1) (Homo sapiens, UniProt P29597).
T1 construct: recombinantly generated catalytic kinase (also known as JH1) domain of human JAK1, JAK2, JAK3 and TYK2
T1 sequence (P29597 897-1176 limits assumed): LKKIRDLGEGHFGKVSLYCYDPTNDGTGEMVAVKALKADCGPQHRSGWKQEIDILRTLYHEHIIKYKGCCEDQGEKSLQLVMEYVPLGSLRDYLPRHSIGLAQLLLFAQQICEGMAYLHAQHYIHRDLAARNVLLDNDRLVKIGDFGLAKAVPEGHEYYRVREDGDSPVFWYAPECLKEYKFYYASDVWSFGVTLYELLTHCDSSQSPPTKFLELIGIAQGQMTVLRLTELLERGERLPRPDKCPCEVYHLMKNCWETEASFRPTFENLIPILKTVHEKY
Nature of the experiment: JH1 biochemical assay for TYK2 (ADP-Glo kinase assay, recombinant JH1 catalytic domain, JAK3-974 peptide, 10 μM ATP). The method in brief: (§1)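 Reactions ran 100 min with 50 μM substrate peptide (JAK3-342 for JAK1 at 4 nM enzyme; JAK3-974 for JAK2 0.2 nM, JAK3 0.3 nM, TYK2 2 nM), and ADP formed was read by ADP-Glo luminescence. Eleven-point 3-fold series from 10 or 1 μM; IC50 fitted by 4-parameter logistic model.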
A general note: ADP-Glo turns the ADP formed in a reaction into a luminescent signal.

Experiment [2] concerns the target T2, human JAK1 kinase domain (JH1) (Homo sapiens, UniProt P23458).
T2 construct: recombinantly generated catalytic kinase (also known as JH1) domain of human JAK1, JAK2, JAK3 and TYK2
Kind of experiment: JH1 biochemical assay for JAK1 (ADP-Glo kinase assay, recombinant JH1 catalytic domain, JAK3-342 peptide, 35 μM ATP). The method in brief:
as §1

The target in experiment [3] is T3, human JAK2 kinase domain (JH1) (Homo sapiens, UniProt O60674).
T3 construct: recombinantly generated catalytic kinase (also known as JH1) domain of human JAK1, JAK2, JAK3 and TYK2
Nature of the experiment: JH1 biochemical assay for JAK2 (ADP-Glo kinase assay, recombinant JH1 catalytic domain, JAK3-974 peptide, 15 μM ATP). The method in brief:
as §1

In experiment [4] the target is T4, human JAK3 kinase domain (JH1) (Homo sapiens, UniProt P52333).
T4 construct: recombinantly generated catalytic kinase (also known as JH1) domain of human JAK1, JAK2, JAK3 and TYK2
Kind of experiment: JH1 biochemical assay for JAK3 (ADP-Glo kinase assay, recombinant JH1 catalytic domain, JAK3-974 peptide, 4 μM ATP). The essentials:
as §1

The target of experiment [5] is Tyk2 kinase activity on STAT4 in NK92 cells (Homo sapiens, UniProt P29597). Kind of experiment: pSTAT4 cell assay (MSD; NK92 cells, 30 ng/mL IL2 stimulation). The format is cell-based. The conditions noted are these: 30 ng/mL IL2, 15 minutes. Here is the method: The inhibitory potency of compounds of the disclosure against the Tyk2 kinase activity on STAT4 was evaluated using an MSD-platform plate-based assay format. NK92 cells natively expressing STAT4 and Tyk2 were serum-starved to reduce background phosphorylation levels, then cells were treated compounds for 1 hr with a 10-point four-fold dilution series starting at 10 μM. Cells were then stimulated with 30 ng/mL IL2 for 15 minutes. Cells were lysed and […] levels were quantitated using an MSD plate-based assay with anti-STAT4 antibodies. The data were normalized and the percent activity versus log concentration of compound were fitted with a 4-parameter logistic model to generate to generate IC50 curves.

Experiment [6] deals with JAK2 kinase activity on STAT5 in TF1 cells (Homo sapiens, UniProt O60674). Kind of experiment: pSTAT5 cell assay (MSD; TF1 cells, 30 ng/mL IL-3 stimulation). Format: cell-based. The conditions noted are these: 30 ng/mL IL-3, 15 minutes. On the procedure: The inhibitory potency of compounds of the disclosure against the JAK2 kinase activity on STAT5 was evaluated using an MSD-platform plate-based assay format. TF1 cells natively expressing STAT5 and JAK2 were serum-starved to reduce background phosphorylation levels, then cells were treated with compounds of disclosure for 1 hour with a 10-point four-fold dilution series starting at 10 μM. Cells were then stimulated with 30 ng/mL IL-3 for 15 minutes. Cells were then lysed and pSTAT5 levels were quantitated using an MSD plate-based assay with anti-STAT5 antibodies. The data were normalized and the percent activity versus log concentration of compound was fitted with a 4-parameter logistic model to generate a curve and an IC50 value.

Experiment [7] addresses JAK1 kinase activity on STAT3 in TF1 cells (Homo sapiens, UniProt P23458). Kind of experiment: pSTAT3 cell assay (MSD; TF1 cells, 30 ng/mL IL-6 stimulation). Format: cell-based. Particulars: 30 ng/mL IL-6, 15 minutes. On the procedure:
The inhibitory potency of compounds of the disclosure against the JAK1 kinase activity on STAT3 was evaluated using an MSD-platform plate-based assay format. TF1 cells natively expressing STAT3 and JAK1 were serum-starved to reduce background phosphorylation levels, then cells were treated with compounds of the disclosure for 1 hour with a 10-point four-fold dilution series starting at 10 μM. Cells were then stimulated with 30 ng/mL interleukin 6 (IL-6) for 15 minutes. Cells were lysed and pSTAT3 levels were quantitated using an MSD plate-based assay with anti-STAT3 antibodies. The data were normalized and the percent activity versus log concentration of compound was fitted with a 4-parameter logistic model to generate IC50 curves.

T4 sequence (P52333 822-1111 limits assumed): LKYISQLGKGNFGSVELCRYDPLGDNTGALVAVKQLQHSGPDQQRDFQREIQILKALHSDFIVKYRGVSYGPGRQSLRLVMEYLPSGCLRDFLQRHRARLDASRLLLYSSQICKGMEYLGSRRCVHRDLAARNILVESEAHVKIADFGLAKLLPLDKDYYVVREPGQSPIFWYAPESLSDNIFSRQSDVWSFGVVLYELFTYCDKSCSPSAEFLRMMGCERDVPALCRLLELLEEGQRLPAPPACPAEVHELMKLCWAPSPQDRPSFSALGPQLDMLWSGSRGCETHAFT
Chain of JAK1 kinase activity on STAT3 in TF1 cells (P23458 whole entry): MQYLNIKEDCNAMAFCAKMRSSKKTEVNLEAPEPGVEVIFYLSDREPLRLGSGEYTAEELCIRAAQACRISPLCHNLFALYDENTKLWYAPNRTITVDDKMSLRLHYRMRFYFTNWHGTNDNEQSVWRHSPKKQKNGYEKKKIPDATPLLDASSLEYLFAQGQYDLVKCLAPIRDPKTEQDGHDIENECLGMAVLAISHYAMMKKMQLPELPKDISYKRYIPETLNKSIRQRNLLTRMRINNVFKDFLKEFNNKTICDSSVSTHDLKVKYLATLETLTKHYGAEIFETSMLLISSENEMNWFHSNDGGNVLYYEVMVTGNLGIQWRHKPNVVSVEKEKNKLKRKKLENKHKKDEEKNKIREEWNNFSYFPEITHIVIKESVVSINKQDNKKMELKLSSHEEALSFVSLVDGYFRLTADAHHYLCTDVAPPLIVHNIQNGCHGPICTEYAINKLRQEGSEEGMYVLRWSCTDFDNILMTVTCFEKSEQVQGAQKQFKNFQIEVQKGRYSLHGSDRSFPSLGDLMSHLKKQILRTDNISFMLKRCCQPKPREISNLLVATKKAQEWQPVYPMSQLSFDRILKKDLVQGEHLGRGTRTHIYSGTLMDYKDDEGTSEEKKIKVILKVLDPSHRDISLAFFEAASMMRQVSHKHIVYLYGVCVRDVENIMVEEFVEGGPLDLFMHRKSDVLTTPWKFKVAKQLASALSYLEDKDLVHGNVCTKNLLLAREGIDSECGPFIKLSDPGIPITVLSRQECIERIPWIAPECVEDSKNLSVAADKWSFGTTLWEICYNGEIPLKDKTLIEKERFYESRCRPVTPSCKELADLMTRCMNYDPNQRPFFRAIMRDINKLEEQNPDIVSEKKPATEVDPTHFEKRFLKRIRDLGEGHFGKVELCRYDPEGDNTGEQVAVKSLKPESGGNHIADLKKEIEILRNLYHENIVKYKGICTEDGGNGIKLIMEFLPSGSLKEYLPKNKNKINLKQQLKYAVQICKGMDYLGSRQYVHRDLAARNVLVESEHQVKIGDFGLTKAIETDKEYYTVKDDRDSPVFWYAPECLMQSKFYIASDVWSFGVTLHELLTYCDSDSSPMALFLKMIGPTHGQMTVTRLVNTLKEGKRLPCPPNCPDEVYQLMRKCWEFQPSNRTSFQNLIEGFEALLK
T2 sequence (P23458 875-1153 limits assumed): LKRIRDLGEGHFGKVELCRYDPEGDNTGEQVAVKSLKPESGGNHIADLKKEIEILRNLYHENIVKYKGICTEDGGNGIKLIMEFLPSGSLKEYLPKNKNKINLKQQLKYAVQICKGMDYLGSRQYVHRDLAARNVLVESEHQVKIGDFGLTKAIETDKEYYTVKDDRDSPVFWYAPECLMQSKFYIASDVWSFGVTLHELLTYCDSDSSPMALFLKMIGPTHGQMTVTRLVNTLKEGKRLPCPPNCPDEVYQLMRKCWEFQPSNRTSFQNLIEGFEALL
T3 sequence (O60674 849-1124 limits assumed): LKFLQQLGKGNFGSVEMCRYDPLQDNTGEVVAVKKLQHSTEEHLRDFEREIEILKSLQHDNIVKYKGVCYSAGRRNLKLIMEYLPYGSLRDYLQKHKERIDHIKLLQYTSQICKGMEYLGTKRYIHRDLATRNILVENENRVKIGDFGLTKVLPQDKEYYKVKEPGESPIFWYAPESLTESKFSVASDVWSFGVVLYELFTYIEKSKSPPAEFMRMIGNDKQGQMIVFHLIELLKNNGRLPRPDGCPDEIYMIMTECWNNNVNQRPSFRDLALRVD
Chain of JAK2 kinase activity on STAT5 in TF1 cells (O60674 whole entry): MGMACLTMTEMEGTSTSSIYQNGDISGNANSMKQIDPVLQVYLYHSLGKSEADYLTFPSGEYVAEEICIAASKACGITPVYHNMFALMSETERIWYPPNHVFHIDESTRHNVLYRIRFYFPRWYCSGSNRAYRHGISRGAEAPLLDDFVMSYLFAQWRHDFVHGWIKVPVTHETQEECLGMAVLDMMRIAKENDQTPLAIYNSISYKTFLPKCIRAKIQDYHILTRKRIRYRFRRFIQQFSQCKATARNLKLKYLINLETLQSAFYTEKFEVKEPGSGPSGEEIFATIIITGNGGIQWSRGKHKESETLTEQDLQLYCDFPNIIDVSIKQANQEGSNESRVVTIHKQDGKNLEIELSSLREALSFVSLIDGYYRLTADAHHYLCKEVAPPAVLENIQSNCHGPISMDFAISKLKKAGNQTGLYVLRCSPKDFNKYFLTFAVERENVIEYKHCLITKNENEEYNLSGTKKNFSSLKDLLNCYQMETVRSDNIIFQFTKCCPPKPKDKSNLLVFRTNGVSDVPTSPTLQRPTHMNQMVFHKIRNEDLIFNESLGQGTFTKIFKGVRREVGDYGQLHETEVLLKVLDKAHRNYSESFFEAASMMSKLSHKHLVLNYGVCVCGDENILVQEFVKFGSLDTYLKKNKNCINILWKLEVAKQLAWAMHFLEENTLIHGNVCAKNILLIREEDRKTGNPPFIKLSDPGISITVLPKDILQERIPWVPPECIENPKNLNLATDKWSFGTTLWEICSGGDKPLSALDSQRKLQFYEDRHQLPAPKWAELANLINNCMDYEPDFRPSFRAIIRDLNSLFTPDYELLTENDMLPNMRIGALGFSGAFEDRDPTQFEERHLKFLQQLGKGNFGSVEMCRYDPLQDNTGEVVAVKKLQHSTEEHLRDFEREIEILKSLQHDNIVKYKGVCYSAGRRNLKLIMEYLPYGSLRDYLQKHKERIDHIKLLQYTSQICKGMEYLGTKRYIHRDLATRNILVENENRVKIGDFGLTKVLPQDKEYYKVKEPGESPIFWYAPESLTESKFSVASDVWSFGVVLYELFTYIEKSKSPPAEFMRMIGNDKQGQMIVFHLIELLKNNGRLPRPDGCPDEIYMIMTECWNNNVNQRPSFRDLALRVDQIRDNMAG
Chain of Tyk2 kinase activity on STAT4 in NK92 cells (P29597 whole entry): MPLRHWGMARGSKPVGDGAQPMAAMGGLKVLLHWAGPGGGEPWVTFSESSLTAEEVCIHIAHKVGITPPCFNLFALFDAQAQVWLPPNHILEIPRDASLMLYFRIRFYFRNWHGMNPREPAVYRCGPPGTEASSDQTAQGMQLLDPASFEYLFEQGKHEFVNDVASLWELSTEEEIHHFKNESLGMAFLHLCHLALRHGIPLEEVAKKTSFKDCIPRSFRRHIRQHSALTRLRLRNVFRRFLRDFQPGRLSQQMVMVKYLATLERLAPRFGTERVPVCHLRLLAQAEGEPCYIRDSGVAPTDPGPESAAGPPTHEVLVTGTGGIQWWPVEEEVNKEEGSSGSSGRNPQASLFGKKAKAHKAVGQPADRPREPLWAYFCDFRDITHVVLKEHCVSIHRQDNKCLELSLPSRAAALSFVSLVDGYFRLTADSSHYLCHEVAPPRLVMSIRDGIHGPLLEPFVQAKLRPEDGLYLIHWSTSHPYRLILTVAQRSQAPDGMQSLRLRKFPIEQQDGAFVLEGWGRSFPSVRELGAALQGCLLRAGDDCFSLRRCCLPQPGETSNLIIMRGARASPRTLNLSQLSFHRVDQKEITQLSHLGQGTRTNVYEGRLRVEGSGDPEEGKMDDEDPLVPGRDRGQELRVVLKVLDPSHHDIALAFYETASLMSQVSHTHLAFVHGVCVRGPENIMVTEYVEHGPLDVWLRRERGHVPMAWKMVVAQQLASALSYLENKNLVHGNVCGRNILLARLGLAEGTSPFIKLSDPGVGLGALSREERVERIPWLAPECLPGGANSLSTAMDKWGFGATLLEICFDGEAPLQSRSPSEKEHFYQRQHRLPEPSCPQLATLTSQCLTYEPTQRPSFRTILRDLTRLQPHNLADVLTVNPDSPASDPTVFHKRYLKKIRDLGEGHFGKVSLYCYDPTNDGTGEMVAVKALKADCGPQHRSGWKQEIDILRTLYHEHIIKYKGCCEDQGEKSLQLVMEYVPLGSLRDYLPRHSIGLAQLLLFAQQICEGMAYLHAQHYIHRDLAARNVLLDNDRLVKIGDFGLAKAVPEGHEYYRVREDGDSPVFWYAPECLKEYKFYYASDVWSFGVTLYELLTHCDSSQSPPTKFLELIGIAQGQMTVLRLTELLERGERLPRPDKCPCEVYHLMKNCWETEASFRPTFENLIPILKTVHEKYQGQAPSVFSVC

For the compound `Cn1cc(-c2cc3c(N4C[C@@H](C(F)F)[C@@](C#N)(C5CC5)C4=O)ccnn3c2)cn1` (racemic) [Example 153, rac-(3R,4S)-3-cyclopropyl-4-(difluoromethyl)-1-(6-(1-methyl-1H-pyrazol-4-yl)pyrrolo[1,2-b]pyridazin-4-yl)-2-oxopyrrolidine-3-carbonitrile], the 50% inhibitory concentration (IC50) (in general, the concentration that gives 50% inhibition) in experiment [1] (JH1 kinase domain, ADP-Glo) is 20 to 50 nM; in experiment [2] (JH1 kinase domain, ADP-Glo), 100 to 1000 nM; in experiment [3] (JH1 kinase domain, ADP-Glo) it was 1000 to 5000 nM; in experiment [4] (JH1 kinase domain, ADP-Glo), 1000 to 5000 nM; in experiment [5], greater than 100 nM; in experiment [6], greater than 10000 nM. Moreover, the IC50 in experiment [7] is greater than 10000 nM.
Regarding `C[C@@H]1CN(c2ccnn3cc(-c4cnn(C5CC5(F)F)c4)cc23)C(=O)[C@]1(C#N)C1CC1` (mixture of isomers) [Example 154, (3R,4S)-3-cyclopropyl-1-(6-(1-(2,2-difluorocyclopropyl)-1H-pyrazol-4-yl)pyrrolo[1,2-b]pyridazin-4-yl)-4-methyl-2-oxopyrrolidine-3-carbonitrile], the 50% inhibitory concentration (IC50) in experiment [1] (JH1 kinase domain, ADP-Glo) was less than 5 nM; in experiment [2] (JH1 kinase domain, ADP-Glo) it was less than 100 nM; in experiment [3] (JH1 kinase domain, ADP-Glo), 100 to 1000 nM; in experiment [4] (JH1 kinase domain, ADP-Glo), 100 to 1000 nM; in experiment [5], 5 to 20 nM; in experiment [6], 1000 to 5000 nM. In experiment [7], this compound had an IC50 of 1000 to 5000 nM.
As to `C[C@@H]1CN(c2nc(-c3cnn([C@H]4CO[C@@H]4C)c3)cn3ncc(F)c23)C(=O)[C@]1(C#N)C1CC1` (relative stereo) [Example 306, (3R,4S)-3-cyclopropyl-1-(3-fluoro-6-(1-((2R,3 S)-2-methyloxetan-3-yl)-1H-pyrazol-4-yl)pyrazolo[1,5-a]pyrazin-4-yl)-4-methyl-2-oxopyrrolidine-3-carbonitrile and (3R,4S)-3-cyclopropyl-1-(3-fluoro-6-(1-((2S,3R)-2-methyloxetan-3-yl)-1H-pyrazol-4-yl)pyrazolo[1,5-a]pyrazin-4-yl)-4-methyl-2-oxopyrrolidine-3-carbonitrile], the IC50 was less than 5 nM in experiment [1] (TYK2 JH1, ADP-Glo); less than 100 nM in experiment [2] (JAK1 JH1, ADP-Glo); less than 100 nM in experiment [3] (JAK2 JH1, ADP-Glo); less than 100 nM in experiment [4] (JAK3 JH1, ADP-Glo); 20 to 50 nM in experiment [5]; 1000 to 5000 nM in experiment [6]. The IC50 in experiment [7] lay within 100 to 1000 nM.
As for `COC[C@@]1(C#N)CCN(c2ccnn3cc(-c4cnn(C)c4)cc23)C1=O` (single isomer, unassigned) [Example 40], the IC50 in experiment [1] (JH1 kinase domain, ADP-Glo) was 50 to 100 nM; in experiment [2] (JH1 kinase domain, ADP-Glo), 1000 to 5000 nM; in experiment [3] (JH1 kinase domain, ADP-Glo), 100 to 1000 nM; in experiment [4] (JH1 kinase domain, ADP-Glo) it was 100 to 1000 nM; in experiment [5], greater than 100 nM; in experiment [6], greater than 10000 nM. Moreover, the IC50 in experiment [7] was greater than 10000 nM.
Regarding `C[C@@H]1CN(c2ccnn3cc(-c4cnn([C@@H]5CC5(F)F)c4)cc23)C(=O)[C@]1(C#N)C1CC1` (single isomer, unassigned) [Example 155], the IC50 was less than 5 nM in experiment [1] (JH1 kinase domain, ADP-Glo); less than 100 nM in experiment [2] (JH1 kinase domain, ADP-Glo); 100 to 1000 nM in experiment [3] (JH1 kinase domain, ADP-Glo); 100 to 1000 nM in experiment [4] (JH1 kinase domain, ADP-Glo); 50 to 100 nM in experiment [5]; 1000 to 5000 nM in experiment [6]. The compound also had a concentration for half-maximal inhibition (IC50) in experiment [7] of 1000 to 5000 nM.
As to `C[C@@H]1CN(c2ccnn3cc(-c4cnn([C@H]5CC5(F)F)c4)cc23)C(=O)[C@]1(C#N)C1CC1` (single isomer, unassigned) [Example 156], the half-maximal inhibitory concentration (IC50) in experiment [1] (JH1 kinase domain, ADP-Glo) is less than 5 nM; in experiment [2] (JH1 kinase domain, ADP-Glo), 100 to 1000 nM; in experiment [3] (JH1 kinase domain, ADP-Glo), 100 to 1000 nM; in experiment [4] (JH1 kinase domain, ADP-Glo), less than 100 nM; in experiment [5], 50 to 100 nM; in experiment [6] it was 1000 to 5000 nM. In addition, the 50% inhibitory concentration (IC50) in experiment [7] was 1000 to 5000 nM.
